What was measured:
MCA 207 tumor [1] = assay: Tumor growth, combination with pINEX-IL-12 in INEX 324; assay type: in vivo, C57 BL/6 mice; details: subtherapeutic vincristine (OncoTCS 0.5 mg/kg i.v.) then INEX 324 pINEX-IL-12 100 μg DNA i.v.
Experimental: C57 BL/6 mice are seeded subcutaneously with MCA 207 tumor cells. Tumor seeding is performed by standard techniques. Mice were seeded subcutaneously on the hip flank with 100,000 MCA-207 fibrosarcoma tumor cells by sub-cutaneous injection on day zero.
On days 7-10, when tumors had developed to useable sizes, mice were injected i.v. via tail vein with approximately 0.5 mg/kg of OncoTCS ([…]).
At 8, 16, 24, 30, 36, 42 or […] after OncoTCS treatment, the mice were injected i.v. via tail vein with INEX 324 (100 μg DNA pINEX-IL-12 with about 500 μg lipid all in about 200 μL total volume). Control mice received HBS.

MCA 207 tumor [2] = assay: Tumor growth, combination with INEX 303 pINEX-TK10 and ganciclovir; assay type: in vivo, C57 BL/6 mice; details: OncoTCS 0.5 mg/kg i.v. then INEX 303 pINEX-TK10 i.v. and ganciclovir i.p.
Experimental: C57 BL/6 mice are seeded subcutaneously with MCA 207 tumor cells. Tumor seeding is performed by standard techniques. Mice are seeded subcutaneously on the hip flank with 100,000 MCA-207 fibrosarcoma tumor cells by […] injection on day zero. The tumor cells are cultivated and prepared according to standard techniques using RPMI media with 10% Fetal Bovine Serum (see, for example, Current Protocols in Molecular Biology, Eds. Ausubel, F. M., et al.)
At 8, 16, 24, 30, 36, 42 or […] after OncoTCS treatment, the mice are injected i.v. via tail vein with INEX 303 containing pINEX-TK10 prepared as described herein (100 μg DNA with about 500 μg lipid all in about 200 μL total volume). Control mice receive HBS.
1 mg ganciclovir, which is in 200 μL PBS (approximately 50 mg/kg; commercially available from Hoffman La Roche) is administered by intraperitoneal injection 12 h and 24 h after SPLP administration.

tumor cells = details: Son and Huang 1994; cited from earlier work
SK-OV-3 cells [3] = assay: Cell cycle status by propidium iodide flow cytometry; assay type: cell-based, human
Experimental: (§1) SK-OV-3 or HeLa-luc cells were seeded at a density of 30,000 cells per well in a 24 well plate in growth media 24 hours prior to treatment with aphidicolin. Aphidicolin (Sigma) was reconstituted in phosphate buffered saline containing 0.5% DMSO. Cells were incubated with aphidicolin at a final concentration of 5 μg/mL in 1 mL of media per well for 16 hours prior to transfection. Transfection was accomplished by the addition of 0.5 μg of formulated DNA to each well.
The cell cycle status of cultures was determined by flow cytometry of permeabilized cells that were stained with propidium iodide. Prior to harvesting, media was aspirated and the cells were washed twice with 2 mL phosphate buffered saline (PBS). After washing, 2-3 drops of pre-warmed trypsin-EDTA (0.25% trypsin, 1 mM EDTA; Gibco BRL) was added to each well and the plate was incubated at 37° C. until the cells had detached from the plate. Trypsin was inactivated by the addition of 1.5 mL of cold media; The samples were transferred to 6 mL polystyrene tubes (Becton-Dickenson, San Jose, Calif., USA) and centrifuged at 2000 rpm for 5 min (Beckman GS-6R, rotor GH3.8). Cells were fixed and permeabilized by incubation for 10 min in 70% methanol (pre-chilled to −70° C.). Samples were then centrifuged at 2000 rpm for 5 min and the cells were incubated in 0.5 mL of 150 μg/mL propidium iodide (Molecular Probes, Eugene, Oreg.) in PBS for 30 minutes on ice in the dark prior to analysis by flow cytometry. 5,000 cells were analyzed in the FL2 channel (λemission=585+/−21 nm) of a FACSort flow cytometer (Becton-Dickinson, San Jose, Calif.) equipped with an Ar- ion laser (λexcitation=488 nm)

SK-OV-3 cells [4] = assay: Uptake of YOYO-1 labeled plasmid lipoplexes by flow cytometry; assay type: cell-based, human; details: aphidicolin 5 μg/mL 16 hr; vs control cells
Experimental: as §1
For the plasmid DNA uptake experiments, the method previously described (Zabner, et al., J. Biol. Chem., 270:18997-19007 (1995); Tseng, et al., Biotechnol. Bioeng., 50:548-554 (1996)) using fluorescently labeled DNA and flow cytometry was used with the following modifications. Plasmid DNA was fluorescently labeled by incubation with YOYO-1 iodide (Molecular Probes, Eugene, Oreg.) at a dye:basepair ratio of […] for 10 minutes at 4° C. The sample was then dialyzed twice against autoclaved deionized water.
Lipoplexes were prepared using YOYO-1 labeled DNA and incubated with cells. […] Fluorescence was measured in the FL1 channel (λemission=530+/−15 nm) of a FACSort flow cytometer (Becton-Dickinson, San Jose, Calif.) equipped with an Ar- ion laser (λexcitation=488 nm). Data was collected from 10,000 cells and analyzed for fluorescence using CellQuest software.

HeLa-luc cells = assay: Luciferase gene expression in stably transfected HeLa-luc cells; assay type: cell-based, human; details: HeLa-luc, 0, 6 and 24 hours after arrest vs untreated control cells
Experimental: SK-OV-3 cells human ovarian tumor cells, ATCC) were cultured in RPMI 1640 media (StemCell Technologies, Vancouver, B.C.) supplemented with 10% fetal bovine serum (Intergen). HeLa-luc cells were stably transfected with a luciferase reporter plasmid and cultured in Dulbecco's modified Eagle medium (StemCell Technologies, Vancouver, B.C.) supplemented with 10% fetal bovine serum and 400 μg/mL Geneticin (Gibco BRL).
as §1
(§2) Luciferase assays were performed using the Luciferase Assay System kit (Promega, Madison, Wis.) according to the manufacturer's protocol. […] A standard curve was determined by assaying 20 μL of serial dilutions of a 1 mg/mL luciferase standard (Boehringer Mannheim). […] Absorbance was monitored at 570 nm (Dynatech MR5000 plate reader) and protein content calculated using a standard curve of varying concentrations of BSA.

SK-OV-3 cells [5] = assay: Lipid mediated transfection (lipoplexes or SPLPs), luciferase activity; assay type: cell-based, human; details: for increase in luciferase expression, (+/−) vs (−/−) culture: peak; for difference in luciferase activity between (−/−) and (+/+) cultures: 26 hrs
Experimental: Lipoplexes were prepared as follows: All reagents were sterile and cooled to 4° C. prior to complex preparation. A solution containing 62 μM dioleoyldimethylammonium chloride: 1,2-sn-dioleoylphosphatidylethanolamine (DODAC:DOPE) large unilamellar vesicles (LUVs) and a solution containing 10 μg/mL plasmid DNA were prepared in distilled water. The DNA was added to an equal volume of lipid dropwise, while vortexing. The solution was incubated on ice for 30 minutes prior to transfection. The resulting lipoplexes contained a final DNA concentration of 0.5 μg/100 μL and the cationic lipid:DNA (+:−) charge ratio was 1:1.
Plasmid containing a therapeutic gene was encapsulated as SPLP using the detergent dialysis method of INEX 351. The SPLP contained 42.5:42.5:15 mol % of DOPE:DODAC:1-O-[2′-(w-methoxypolyethyleneglycol) succinoyl]-2-N-octoylsphingosine, (PEG-CerC8), at a lipid:DNA ratio of 15:1 (w/w). SPLPs were separated from empty liposomes by centrifugation through a discontinuous sucrose gradient.
as §1
Luciferase assays were performed using the Luciferase Assay System kit (Promega, Madison, Wis.) according to the manufacturer's protocol. Cell samples were washed twice with PBS, lysed by incubation with 200 μL of lysis buffer (0.1% triton in 250 mM NaH2PO4, pH 7.4) for 20 min. 20 μL of cell lysate was assayed (in duplicate) using a mL3000 microtiter plate luminometer (Dynex Technologies). A standard curve was determined by assaying 20 μL of serial dilutions of a 1 mg/mL luciferase standard (Boehringer Mannheim). Cell lysate was assayed for protein content using the bicinchoninic acid (BCA) colorimetric method. Briefly, in a 96 well plate, 95 μL of water and 100 μL of the Micro BCA protein assay working reagent (Pierce) were added to 5 μL of cell lysate. The plates were shaken on a rotary platform at 100 rpm for 10 minutes before being incubated at 37° C. for 2 hours. Absorbance was monitored at 570 nm (Dynatech MR5000 plate reader) and protein content calculated using a standard curve of varying concentrations of BSA.

SK-OV-3 cells [6] = assay: Semliki Forest Virus (SFV-luc) mediated luciferase gene expression; assay type: cell-based, human; details: SFV-luc m.o.i. 0.5
Experimental: as §1
Luciferase cDNA was cloned into the multiple cloning site of pSFV 1-3. Recombinant virus encoding luciferase was prepared according to the protocol described by Liljestrom and Garoff (Maniatis, et al., Molecular Cloning, Cold Spring Harbor, N.Y., 1981, pp. 93-94). Prior to infection of SK-OV-3 cells, virus particles were activated in 0.5 mg/mL chymotrypsin for 30 minutes at room temperature. Chymotrypsin was inactivated by the addition of aprotinin to a final concentration of 0.67 mg/mL. […]
as §2

[7] = (+/−) cultures, 1 hr exposure, either formulation

Row | Structure (SMILES) | tumor growth (MCA 207 tumor [1]) | tumor growth vs HSV-TK/ganciclovir system alone (MCA 207 tumor [2]) | expression of plasmid delivered directly to tumor cells after drug treatment (tumor cells) | cells in the G2/M phase, (+/−) culture (SK-OV-3 cells [3]; 16 hrs after removal of aphidicolin block) | cells progressed into the G1 phase after mitotic division, (+/−) culture (SK-OV-3 cells [3]; 22 hrs after removal of aphidicolin block) | cells remaining arrested in the G1 phase, (+/+) culture (SK-OV-3 cells [3]; end of the 24 incubation with lipoplexes, continued aphidicolin) | cells remaining arrested in the G1 phase, (+/+) cultures (SK-OV-3 cells [3]; throughout kinetics experiments (to 26 hrs) with lipoplexes or SPLPs) | effect of cell cycle arrest on internalization of lipoplexes (SK-OV-3 cells [4]) | effect on level of luciferase gene expression (HeLa-luc cells) | time after removal of aphidicolin at which luciferase expression begins to increase (SK-OV-3 cells [5]; [7]) | time after removal of aphidicolin of maximum luciferase expression (SK-OV-3 cells [5]; [7]) | increase in luciferase expression, (+/−) vs (−/−) culture (SK-OV-3 cells [5]; SPLPs, 1 hr exposure) | difference in luciferase activity between (−/−) and (+/+) cultures (SK-OV-3 cells [5]; SPLPs) | increase in luciferase expression, (+/−) vs (−/−) culture (SK-OV-3 cells [5]; lipoplexes, 1 hr exposure) | decrease in luciferase gene expression, (+/+) culture (SK-OV-3 cells [5]; lipoplexes, 24 hrs continuous exposure, continued aphidicolin) | luciferase expression of (+/−) cultures vs (−/−) control (SK-OV-3 cells [5]; lipoplexes, 24 hrs, aphidicolin removed) | difference in luciferase activity between (−/−) and (+/+) cultures (SK-OV-3 cells [5]; lipoplexes) | pattern of SFV-luc gene expression between (−/−), (+/−) and (+/+) cultures (SK-OV-3 cells [6])
1 | CC[C@]1(O)C[C@H]2CN(CCc3c([nH]c4ccccc34)[C@@](C(=O)OC)(c3cc4c(cc3OC)N(C=O)[C@H]3[C@@](O)(C(=O)OC)[C@H](OC(C)=O)[C@]5(CC)C=CCN6CC[C@]43[C@@H]65)C2)C1 [Vincristine] | Tumor growth is inhibited and regression in tumor size is visible | inhibits growth of tumors and promotes tumor regression to a significantly greater degree | not found to be effective |  |  |  |  |  |  |  |  |  |  |  |  |  |  | 
2 | N.N.[Cl][Pt][Cl] [Cisplatin] |  |  | improved expression |  |  |  |  |  |  |  |  |  |  |  |  |  |  | 
3 | C[C@@]1(CO)[C@H](O)CC[C@@]2(C)[C@H]1CC[C@H]1C[C@@H]3C[C@@]12CC[C@]3(O)CO [aphidicolin] |  |  |  | approximately 85% | ~45% | approximately 95% | 95% | does not affect the internalization of lipoplexes | did not significantly affect | approximately 10 hours | 12 h | 8 fold | 20 fold | 3 fold | 20 fold | did not differ significantly | approximately 40 fold | no significant difference
